Results taken from patent publication US20100119525A1 (priority 2005, published 2010).

What was measured:
[1] = in vivo, cited from earlier work
C57B16 mice = conditions: in vivo; cited from earlier work
NPC1L1 = NPC1L1 (Homo sapiens, UniProt Q9UHC9); conditions: prokaryotic screening method
NPC1L1, sequence (Q9UHC9 22-1359): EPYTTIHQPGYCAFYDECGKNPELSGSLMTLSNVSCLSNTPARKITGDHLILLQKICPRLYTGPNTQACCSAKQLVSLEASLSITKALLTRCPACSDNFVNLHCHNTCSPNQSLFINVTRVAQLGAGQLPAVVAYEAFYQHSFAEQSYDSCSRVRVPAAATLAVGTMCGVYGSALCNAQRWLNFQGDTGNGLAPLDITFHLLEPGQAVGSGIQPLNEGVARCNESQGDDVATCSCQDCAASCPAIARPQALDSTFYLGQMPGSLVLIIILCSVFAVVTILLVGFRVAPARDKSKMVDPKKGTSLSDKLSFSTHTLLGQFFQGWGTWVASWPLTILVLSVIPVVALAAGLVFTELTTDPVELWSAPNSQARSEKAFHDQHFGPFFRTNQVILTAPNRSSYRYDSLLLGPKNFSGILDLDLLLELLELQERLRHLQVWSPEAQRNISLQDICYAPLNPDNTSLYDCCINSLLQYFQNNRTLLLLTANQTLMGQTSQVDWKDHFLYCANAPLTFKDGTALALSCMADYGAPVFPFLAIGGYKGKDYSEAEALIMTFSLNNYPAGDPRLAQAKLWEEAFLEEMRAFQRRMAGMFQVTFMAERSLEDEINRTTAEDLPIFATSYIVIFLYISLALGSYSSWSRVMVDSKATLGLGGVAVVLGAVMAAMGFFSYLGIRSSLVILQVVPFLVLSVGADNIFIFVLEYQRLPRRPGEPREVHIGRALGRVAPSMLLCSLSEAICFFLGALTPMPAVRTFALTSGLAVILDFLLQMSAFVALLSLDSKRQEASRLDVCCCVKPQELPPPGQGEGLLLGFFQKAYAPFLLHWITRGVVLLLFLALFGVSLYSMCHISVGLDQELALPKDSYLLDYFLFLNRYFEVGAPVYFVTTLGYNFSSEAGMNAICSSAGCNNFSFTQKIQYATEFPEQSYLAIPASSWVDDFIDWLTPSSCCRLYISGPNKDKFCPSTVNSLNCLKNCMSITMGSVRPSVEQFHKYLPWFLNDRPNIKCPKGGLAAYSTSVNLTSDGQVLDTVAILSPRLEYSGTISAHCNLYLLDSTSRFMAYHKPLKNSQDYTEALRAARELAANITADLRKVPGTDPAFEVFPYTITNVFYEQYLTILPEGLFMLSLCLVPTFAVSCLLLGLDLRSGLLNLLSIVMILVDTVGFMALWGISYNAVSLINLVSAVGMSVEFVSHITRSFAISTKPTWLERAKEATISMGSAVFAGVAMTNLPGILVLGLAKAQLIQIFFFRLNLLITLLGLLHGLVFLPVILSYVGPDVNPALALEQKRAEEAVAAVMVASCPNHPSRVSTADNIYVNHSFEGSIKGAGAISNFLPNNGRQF

Compound: O=C1[C@H](CC[C@H](O)c2ccc(F)cc2)[C@@H](c2ccc(O)cc2)N1c1ccc(F)cc1 [Zetia®, 1-(4-fluorophenyl)-(3R)-[3-(4-fluorophenyl)-3(S)-hydroxypropyl]-4(S)-(4-hydroxyphenyl)-2-azetidinone]
- extensively metabolised to the pharmacologically active ezetimibe-glucuronide ([1]; po): > 80%
- accumulation [1]: ~2 fold
- time at which total Zetia concentrations reach a maximum [1]: 1 to 2 h

Compound: COc1ccc2[nH]cc(CCNC(C)=O)c2c1 [melatonin]
- life of the C57B16 mouse (C57B16 mice): 871 ± 30.5 days

Compound: ezetimibe-glucuronide
- estimated terminal half-life ([1]; po): approximately 22 hours

Compound: CCCC(=O)C1(c2ccccc2)CCNCC1.Cl
- NPC1L1 inhibitor identification (NPC1L1): inhibitor was identified
